Measured values: PMC6450699 (Archives of biochemistry and biophysics, 2018)

Target: human cytochrome P450 3A4 (CYP3A4) (Homo sapiens, UniProt P08684, C58T/C64A/C98S/F215C/C239S/C468G)
Assay: purified enzyme with CPR: fluorescent HFC production and NADPH consumption
Assay type: biochemical

Chain of human cytochrome P450 3A4 (CYP3A4) (P08684 13-503 C58T/C64A/C98S/F215C/C239S/C468G): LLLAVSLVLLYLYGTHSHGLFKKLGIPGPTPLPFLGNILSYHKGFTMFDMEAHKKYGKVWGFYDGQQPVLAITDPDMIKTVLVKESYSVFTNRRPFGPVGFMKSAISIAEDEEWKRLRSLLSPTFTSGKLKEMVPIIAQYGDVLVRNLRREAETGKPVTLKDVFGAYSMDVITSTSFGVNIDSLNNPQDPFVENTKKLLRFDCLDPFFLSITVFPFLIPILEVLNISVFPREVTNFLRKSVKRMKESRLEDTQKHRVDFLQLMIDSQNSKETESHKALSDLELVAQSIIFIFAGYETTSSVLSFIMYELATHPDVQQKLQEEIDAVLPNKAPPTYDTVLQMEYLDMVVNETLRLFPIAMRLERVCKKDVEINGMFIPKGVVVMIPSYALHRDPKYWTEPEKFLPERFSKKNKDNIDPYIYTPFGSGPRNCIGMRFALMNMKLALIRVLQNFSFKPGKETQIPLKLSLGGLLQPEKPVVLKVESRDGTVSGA

O=c1cc(C(F)(F)F)c2ccc(OCc3ccccc3)cc2o1 [BFC, 7-benzyloxy-4-trifluoromethylcoumarin]
HFC produced^b: 0.0044 ± 0.0008 μmol/min/μmol enzyme
